Measured values from patent US10159672B2 (PARION SCIENCES, INC., priority 2011, dated 2018).

Columns and labels:
[1] = test system: ExLac Rats; assay: Phenol red thread (PRT) measurement of tear output in ExLac rats; assay type: in vivo, Sprague Dawley
Description: Procedures for Phenol Red Thread (PRT) Measurement of Tear Output:
Animal Species/Strain: Rats, Sprague Dawley (SD); Lacrimal gland surgically removed (ExLac).
Animal Number/Sex: 3-4 females/group
Test Article Formulation: All stock solutions for each dosing arm were prepared no more than 48 hours prior to the start of the study. The concentration of ENaC blockers in all test article solutions were confirmed by spectrophotometry.
Test Article Administration: Both the ipsilateral and contralateral eyes were dosed with 5 […]1 of test article solution.
Phenol Red Thread (PRT) Test: Tear production was measured using the ZoneQuick cotton thread with impregnated phenol red dye. The folded end of the thread was held in the lateral-ventral conjunctival cul-de-sac for 10 seconds. The length of tear wicking onto the thread was determined by measuring the length of the thread that changes color from yellow to red. Use of a stereomicroscope was assist in the accurate measurement (recorded in millimeters) of the wicking/color change.

[2] = test system: New Zealand White rabbits; assay: Acute non-GLP ocular toxicity / tolerability study; assay type: in vivo
Description: • An Acute Non-GLP Ocular Toxicity Study In New Zealand White Rabbits With P-1046
The purpose of this study was to evaluate the ocular tolerability and systemic exposure of P-1046, an inhibitor of the epithelial sodium channel (ENaC), when administered as a topical instillation to New Zealand white rabbits.
The test article (P-1046) were supplied as a light yellow white powder. The test articles were then prepared into dosing solutions for topical ocular application. Twenty-eight experimentally naïve male New Zealand White rabbits, approximately 4 months old at the outset of the study and weighing 2.6-3.1 kilograms at randomization were assigned to treatment groups as shown in the table below:
Animals were administered 50 μl of the test or control vehicle onto the globe of right eye and 50 μl of saline onto the globe of the left eye eight times (approximately one hour between each dose) in Groups 1 and 6 and four times (approximately two hours between each dose) in Group 7. Mortality and clinical observations were recorded daily. Body weights were recorded at randomization/selection and prior to sacrifice on Day 2. For blink rate assessment, eye blinks in the right eye only were counted for 3 minutes prior to treatment initiation and following all doses. Instances of wincing and pawing at the eyes during the 3-minute eye blink observation period were recorded as clinical observations. Food consumption was recorded daily. Eyes were scored according to Draize prior to treatment, following each dose and on Day 2 at approximately 24 hours post-dose. Blood for toxicokinetic evaluation was collected from animals in Group 2-7 at pre-dose, 30 minutes after the middle dose (4th dose in groups 3, 5, and 6; 2nd dose in groups 2, 4, and 7) and at 30, 60, 120 and 240 minutes following the final dose on Day 1. Blood samples for evaluation of serum chemistry parameters were collected prior to treatment initiation and at 120 and 240 min following the final dose. Urine samples were collected over a 4-hour period following the final dose. All animals were sacrificed following completion of study procedures on Day 2.

[3] = test system: Canine Bronchial Epithelial Cells; assay: Durability of retention of airway surface liquid; assay type: cell-based
[4] = test system: Human Bronchial Epithelial Cells; assay: Absorption rate across human bronchial epithelial cells; assay type: in vitro ADME; settings: n=3
Description: Bronchial cells (dog, human, sheep, or rodent cells) are seeded at a density of 0.25×10^6/cm^2 on a porous Transwell-Col collagen-coated membrane with a growth area of 1.13 cm^2 grown at an air-liquid interface in hormonally defined media that promotes a polarized epithelium. From 12 to 20 days after development of an air-liquid interface (ALI) the cultures are expected to be >90% ciliated, and mucins will accumulate on the cells. To ensure the integrity of primary airway epithelial cell preparations, the transepithelial resistance (R1) and transepithelial potential differences (PD), which are indicators of the integrity of polarized nature of the culture, are measured. […] Concentrations are determined by measuring intrinsic fluorescence of each sodium channel blocker using a Fluorocount Microplate Flourometer or HPLC. Quantitative analysis employs a standard curve generated from authentic reference standard materials of known concentration and purity. […]
In the first series of assays, the interaction of test compounds in KBR as an “ASL” stimulant are applied to the apical surface of human airway epithelial cells grown in the T-Col insert system. […] In instances where the fluorescence properties of the test molecule are not adequate for such characterizations, radiolabeled compounds are used for these assays. […]

[5] = test system: Human Bronchial Epithelial; assay: Metabolism by human bronchial epithelial cells; assay type: in vitro ADME; settings: apical or basolateral
Description: Airway epithelial cells have the capacity to metabolize drugs during the process of transepithelial absorption. Further, although less likely, it is possible that drugs can be metabolized on airway epithelial surfaces by specific ectoenzyme activities. Perhaps more likely as an ecto-surface event, compounds may be metabolized by the infected secretions that occupy the airway lumens of patients with lung disease, e.g. cystic fibrosis. Thus, a series of assays is performed to characterize the compound metabolism that results from the interaction of test compounds with human airway epithelia and/or human airway epithelial lumenal products.
In the first series of assays, the interaction of test compounds in KBR as an “ASL” stimulant are applied to the apical surface of human airway epithelial cells grown in the T-Col insert system. For most compounds, metabolism (generation of new species) is tested for using high performance liquid chromatography (HPLC) to resolve chemical species and the endogenous fluorescence properties of these compounds to estimate the relative quantities of test compound and novel metabolites. […] In instances where the fluorescence properties of the test molecule are not adequate for such characterizations, radiolabeled compounds are used for these assays. […]

[6] = Human plasma protein binding; assay type: in vitro ADME; settings: n=6, read-out: Human Plasma Protein Binding, bound to plasma proteins (converted)
[7] = 10 mM x 8 doses and 30 mM x 4 doses, topical ocular, rabbit

CN(C)C(=O)[C@H](CCCCNC(=N)N)NC(=O)[C@H](CCc1ccc(CCCCNC(=N)NC(=O)c2nc(Cl)c(N)nc2N)cc1)N(C)C [Compound I, 3,5-diamino-6-chloro-N-(N-(4-(4-((S)-3-(dimethylamino)-4-((S)-1-(dimethylamino)-6-guanidino-1-oxohexan-2-ylamino)-4-oxobutyl)phenyl)butyl)carbamimidoyl)pyrazine-2-carboxamide]
Tear output (PRT) in ExLac rats, duration of effect ([1]; 2 hours post-dose, all dose groups except 0.1 mM): still observed
Tear output (PRT) in ExLac rats ([1]; all concentrations, 15 minutes post-dose, n=4): increases tear output in ExLac rats 15 minutes post-dose at or slightly below tear output values observed for normal rats
Tear output, baseline corrected data, significance vs vehicle ([1]; single 10 mM dose, baseline corrected, p <0.03): statistically significant at all post-dose time points
Tear volume relative to vehicle controls ([1]; single 10 mM dose, n=3): increased tear volume relative to vehicle controls
Tear output, raw data, significance vs vehicle ([1]; single 10 mM dose, raw PRT values): not significant beyond 60 minutes
Appearance of eyes on Day 2 ([2]; 10 mM group): appeared normal
Average blink rate [2, 7]: only slight increases at some time points, similarly to vehicle treated animals
Cumulative Draize scores (right eye) [2, 7]: only slight increases in Draize scoring which are not greater than those observed for vehicle treated animals
Post-dose conjunctival redness, severity and incidence ([2]; 10 and 30 mM): comparable to the vehicle controls
Stinging on instillation ([2]; 10 and 30 mM): do not cause stinging
Ocular tolerability ([2]; 10 and 30 mM formulations): well tolerated
Durability of Retention of Airway Surface Liquid, fluid retained ([3]; 8 hours after drug delivery, n=3): 94±5%
Durability of Retention of Airway Surface Liquid, fluid retained ([3]; 24 hours after drug delivery, n=2): 56±6%
Absorption Rate Across Human Bronchial Epithelial Cells [4]: 0.12±0.05 nM/cm^2/min
Metabolism by Human Bronchial Epithelial [5]: No metabolites detected
fraction unbound [6]: 0.2
